This note sets out measurements from patent publication US7968563B2, “Oxime and hydroxylamine substituted imidazo[4,5-c] ring compounds and methods” (3M Innovative Properties Company, priority 2005, dated 2011).

SMILES strings stand for the structures. Counter-ions that a name gives are not always drawn.

The melting point is the temperature, or range, at which the solid turns liquid.

With `CON(C)Cc1nc2c(N)nc3ccccc3c2n1CC1CCOCC1` [Example 20, 2-{[Methoxy(methyl)amino]methyl}-1-(tetrahydro-2H-pyran-4-ylmethyl)-1H-imidazo[4,5-c]quinolin-4-amine], the melting point lay within 223 to 226 °C.

In turn, `CON=Cc1nc2c(N)nc3ccccc3c2n1CC(C)C` [Example 4, 4-Amino-1-(2-methylpropyl)-1H-imidazo[4,5-c]quinoline-2-carbaldehyde O-methyloxime] showed a melting point of 181 to 183 °C.

`CO/N=C/c1nc2c(N)nc(C)c(C)c2n1CC(C)C` [Example 14, 4-Amino-1-isobutyl-6,7-dimethyl-1H-imidazo[4,5-c]pyridine-2-carbaldehyde O-methyloxime] came in with a melting point of 179 to 181 °C.

On to `CONCc1nc2c(N)nc3ccccc3c2n1CC1(O)CCC1` [Example 12, 1-({4-Amino-2-[(methoxyamino)methyl]-1H-imidazo[4,5-c]quinolin-1-yl}methyl)cyclobutanol], for which the melting point fell in the range of 178 to 181 °C.

With `CON(C)Cc1nc2c(N)nc3ccccc3c2n1CC1(O)CCC1` [Example 13, 1-[(4-Amino-2-{[methoxy(methyl)amino]methyl}-1H-imidazo[4,5-c]quinolin-1-yl)methyl]cyclobutanol], the melting point was 219 to 221 °C.

The compound `CON(C)Cc1nc2c(N)nc3cc(OCc4ccccc4)ccc3c2n1CC1CCOCC1` [Example 7, 7-(Benzyloxy)-2-{[methoxy(methyl)amino]methyl}-1-(tetrahydro-2H-pyran-4-ylmethyl)-1H-imidazo[4,5-c]quinolin-4-amine] registered a melting point of 159 to 161 °C.

Regarding `CON(C)Cc1nc2c(N)nc3ccccc3c2n1CC(C)(C)O` [Example 15, 1-(2-Hydroxy-2-methylpropyl)-2-{[methoxy(methyl)amino]methyl}-1H-imidazo[4,5-c]quinolin-4-amine], the melting point was 220 to 222 °C.

`CON(Cc1nc2c(N)nc3cc(OCc4ccccc4)ccc3c2n1CC1CCOCC1)S(C)(=O)=O` [Example 8, N-{[4-Amino-7-(benzyloxy)-1-(tetrahydro-2H-pyran-4-ylmethyl)-1H-imidazo[4,5-c]quinolin-2-yl]methyl}-N-methoxymethanesulfonamide] came in with a melting point of 195 to 197 °C.

`CONCc1nc2c(N)nc3ccccc3c2n1CC(C)(C)O` (as salt: hydrochloride) [Example 16, 1-(2-Hydroxy-2-methylpropyl)-2-{[methoxylamino]methyl}-1H-imidazo[4,5-c]quinolin-4-amine; hydrochloride]: the melting point lay in the range of 255 to 257 °C.

On to `CONCc1nc2c(N)nc3cc(OCc4ccccc4)ccc3c2n1CC1CCOCC1` [Example 6, 7-(Benzyloxy)-2-[(methoxyamino)methyl]-1-(tetrahydro-2H-pyran-4-ylmethyl)-1H-imidazo[4,5-c]quinolin-4-amine], for which the melting point was in the range of 190 to 193 °C.

The compound `CONCc1nc2c(N)nc(C)c(C)c2n1CC(C)C` [Example 9, 1-Isobutyl-2-[(methoxyamino)methyl]-6,7-dimethyl-1H-imidazo[4,5-c]pyridin-4-amine] returned a melting point of 154 to 156 °C.

For the compound `CON(C)Cc1nc2c(N)nc(C)c(C)c2n1CC(C)C` [Example 10, 1-Isobutyl-2-{[methoxy(methyl)amino]methyl}-6,7-dimethyl-1H-imidazo[4,5-c]pyridin-4-amine], the melting point was 132 to 134 °C.

For the compound `CON(C)Cc1nc2cnc3ccccc3c2n1CC1CCOCC1` [Example 18, 2-{[Methoxy(methyl)amino]methyl}-1-(tetrahydro-2H-pyran-4-ylmethyl)-1H-imidazo[4,5-c]quinoline], the melting point is 142 to 144 °C.

On to `CONCc1nc2cnc3ccccc3c2n1CC1CCOCC1` [Example 17, 2-[(Methoxyamino)methyl]-1-(tetrahydro-2H-pyran-4-ylmethyl)-1H-imidazo[4,5-c]quinoline], for which the melting point was 58 to 63 °C.

Regarding `CON=C(C)CCc1nc2c(N)nc3ccccc3c2n1CC(C)(C)O` [Example 5, 4-[4-Amino-1-(2-hydroxy-2-methylpropyl)-1H-imidazo[4,5-c]quinolin-2-yl]butan-2-one O-methyloxime], the melting point is 182 to 184 °C.

Take `CON(Cc1nc2c(N)nc(C)c(C)c2n1CC(C)C)C(=O)C1CC1` [Example 11, N-[(4-Amino-1-isobutyl-6,7-dimethyl-1H-imidazo[4,5-c]pyridin-2-yl)methyl]-N-methoxycyclopropanecarboxamide]: the melting point lay in the range of 135 to 137 °C.

On to `CONCc1nc2c(N)nc3ccccc3c2n1CC1CCOCC1` [Example 19, 2-[(Methoxyamino)methyl]-1-(tetrahydro-2H-pyran-4-ylmethyl)-1H-imidazo[4,5-c]quinolin-4-amine], for which the melting point was 169 to 171 °C.
